Laboratory results: publication PMC4126480, “Evaluation of drug interaction potential of Labisia pumila (Kacip Fatimah) and its constituents” (Frontiers in Pharmacology, 2014)

How the values were obtained:
PXR = biological target: T1, PXR (Homo sapiens, UniProt O75469); experiment: Inhibition of rifampicin-induced PXR activity, reporter gene assay in HepG2 cells; format: cell-based; details: extract 3–30 μg/mL, saponins 3–30 μM
T1 construct: expressed in transfected cells; host or cells: HepG2 cells, transient electroporation with pSG5-PXR and the CYP3A4-PXRE-LUC reporter
T1 sequence (O75469 1-434): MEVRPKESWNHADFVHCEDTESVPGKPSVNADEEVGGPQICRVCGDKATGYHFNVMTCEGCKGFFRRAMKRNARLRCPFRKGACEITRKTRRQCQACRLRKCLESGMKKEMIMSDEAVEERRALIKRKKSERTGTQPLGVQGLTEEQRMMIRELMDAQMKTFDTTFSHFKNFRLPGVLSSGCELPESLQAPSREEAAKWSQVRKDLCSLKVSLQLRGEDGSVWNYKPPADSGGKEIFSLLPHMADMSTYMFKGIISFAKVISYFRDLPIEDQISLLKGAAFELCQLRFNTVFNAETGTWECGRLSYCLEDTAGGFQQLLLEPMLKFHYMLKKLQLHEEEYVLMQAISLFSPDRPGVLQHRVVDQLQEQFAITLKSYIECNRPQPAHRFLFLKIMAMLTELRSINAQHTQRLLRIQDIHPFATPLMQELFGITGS
Source text: The pSG5-hPXR expression vector was provided generously by Dr. Steven Kliewer (University of Texas Southwestern Medical Center, Dallas, TX, USA; [Lehmann et al., 1998]) and the reporter plasmid CYP3A4-PXR response element (PXRE)-LUC (containing the proximal 0/–362 and distal 7208/7797 PXRE regions fused upstream of luciferase; [Goodwin et al., 1999]) was a kind gift from Dr. Christopher Liddle (University of Sydney, Westmead, NSW, Australia). The modulation of PXR activity by test samples was determined in HepG2 cells transiently transfected with pSG5-PXR (25 μg) and PCR5 plasmid DNA (25 μg) by electroporation at 180 V, 1 pulse for 70 msec. The cells were plated in 96-well plates at a density of 50,000 cells per well. […] After additional 24 hour incubation, the media was aspirated and 40 μL of luciferase reagent (Promega Corporation, Madison, WI, USA) was added to each well and luminescence was measured on Spectramax M5 plate reader (Molecular Devices, Sunnyvale, CA, USA). The fold induction in luciferase activity in the treated cells was calculated in comparison to vehicle treated cells. The cytotoxicity of test samples toward HepG2 cells was also determined by measuring the cell viability using the CellTiter 96 AQueous One Solution Cell Proliferation Assay (MTS) as described earlier ([Manda et al., 2013]).

P-gp [1] = biological target: T2, P-gp (Homo sapiens, UniProt P08183); experiment: P-gp inhibition by calcein-AM uptake in hMDR1-MDCK-II cells
T2 sequence (P08183 whole entry): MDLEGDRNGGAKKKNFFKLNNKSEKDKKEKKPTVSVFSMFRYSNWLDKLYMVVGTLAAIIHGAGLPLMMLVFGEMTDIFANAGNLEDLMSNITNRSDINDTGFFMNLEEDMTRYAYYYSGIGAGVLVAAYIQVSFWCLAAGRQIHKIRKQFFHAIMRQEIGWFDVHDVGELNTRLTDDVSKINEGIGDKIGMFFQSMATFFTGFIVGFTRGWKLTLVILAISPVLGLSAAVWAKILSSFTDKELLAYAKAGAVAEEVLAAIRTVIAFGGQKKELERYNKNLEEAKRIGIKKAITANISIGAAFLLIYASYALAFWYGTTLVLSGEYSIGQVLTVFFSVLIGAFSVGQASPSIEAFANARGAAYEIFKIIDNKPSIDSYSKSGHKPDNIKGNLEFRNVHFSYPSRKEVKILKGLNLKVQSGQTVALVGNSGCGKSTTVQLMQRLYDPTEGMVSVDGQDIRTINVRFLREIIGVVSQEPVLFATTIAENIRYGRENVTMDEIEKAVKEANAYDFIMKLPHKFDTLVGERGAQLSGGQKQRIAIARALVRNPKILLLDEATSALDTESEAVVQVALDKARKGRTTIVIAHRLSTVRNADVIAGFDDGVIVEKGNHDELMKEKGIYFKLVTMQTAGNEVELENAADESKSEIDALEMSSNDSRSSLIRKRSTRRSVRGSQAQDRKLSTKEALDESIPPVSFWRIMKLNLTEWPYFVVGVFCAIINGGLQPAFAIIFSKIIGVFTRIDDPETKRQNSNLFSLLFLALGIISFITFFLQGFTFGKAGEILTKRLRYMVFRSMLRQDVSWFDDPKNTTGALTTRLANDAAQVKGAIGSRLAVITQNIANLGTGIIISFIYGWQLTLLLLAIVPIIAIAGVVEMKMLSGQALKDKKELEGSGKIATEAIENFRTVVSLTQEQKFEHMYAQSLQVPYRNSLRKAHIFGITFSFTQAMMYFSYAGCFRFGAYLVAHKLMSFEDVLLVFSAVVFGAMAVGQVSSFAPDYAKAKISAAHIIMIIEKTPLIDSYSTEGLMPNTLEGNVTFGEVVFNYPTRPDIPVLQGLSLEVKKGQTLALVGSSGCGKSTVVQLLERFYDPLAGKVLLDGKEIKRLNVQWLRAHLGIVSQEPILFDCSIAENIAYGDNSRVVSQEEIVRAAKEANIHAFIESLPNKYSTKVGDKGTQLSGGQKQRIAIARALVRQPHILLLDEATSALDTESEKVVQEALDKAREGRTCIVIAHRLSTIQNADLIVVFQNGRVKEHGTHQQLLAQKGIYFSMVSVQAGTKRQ
Protocol: Cells were seeded in 96-well plates at 70,000 cells/well in 200 μL of culture medium. The medium was changed at 24 h after seeding and the assay was performed 48 h later.

[2] = Estimation of concentration per dose, GIT and plasma concentrations (560 mg KF extract dose); parameters: species or system human; details: for Estimated concentration per dose: 560 mg KF extract, single dose, from % yield; for Estimated GIT concentration / Estimated Plasma concentration: 560 mg dose; for Estimated GIT concentration: human GIT volume 250 mL; for Estimated Plasma concentration: Table 2, plasma volume 3 L, 100% bioavailable assumed
Protocol: All assumptions to predict the HDI potential of KF methanolic extract and its constituents were according to previously published report ([Awortwe et al., 2014]). The % yield was calculated from the amounts extracted from the KF roots ([Ali and Khan, 2011]). The human GIT volume is 250 mL and plasma volume is about 3 L. The commonly used maximum dose of KF extract capsules is 560 mg per day ([Abdul Kadir et al., 2012]) and accordingly we estimated the concentration per dose, GIT, and plasma concentrations of extract and its constituents. We then compared the in vitro IC50 values obtained from recombinant CYPs with estimated GIT and plasma concentrations. If the IC50 values were lower than the GIT or plasma concentration, then the test compound or extract is likely to cause HDI in vivo.

P-gp [3] = biological target: T2, P-gp; experiment: P-gp inhibition by 3H-digoxin basolateral to apical transport in hMDR1-MDCK-II cells
Protocol: The cells were seeded at a density of 120,000 cells/well in 12-well Transwell plates and cultured for 3 days. […] Cells were washed with warm HBSS buffer supplemented with 10 mM HEPES (pH 7.4) and pre-incubated with 0.5 mL of buffer containing test samples (six concentrations) on the apical side and 1.5 mL of buffer on the basolateral side for 30 min (37 °C, 5% CO2, and 95% relative humidity). […] Aliquots of 25 μL were taken out from the apical side, mixed with 100 μL of scintillant (Microscint TM-40, PerkinElmer) and radioactive counts were measured on a TopCount microplate scintillation counter (PerkinElmer, Waltham, MA, USA) in CPM mode.
The inhibition of the basolateral to apical (B-A) transport of digoxin by test samples was calculated compared to the vehicle control.

[4] = tested on: hMDR1-MDCK-II cell monolayers; experiment: Monolayer integrity: permeability of Lucifer yellow; format: in vitro ADME, canine; details: paracellular marker
Protocol: The cells were seeded at a density of 120,000 cells/well in 12-well Transwell plates and cultured for 3 days. TEER values were in the range of 500–800 Ω cm^2. Cells were washed with warm HBSS buffer supplemented with 10 mM HEPES (pH 7.4) and pre-incubated with 0.5 mL of buffer containing test samples (six concentrations) on the apical side and 1.5 mL of buffer on the basolateral side for 30 min (37 °C, 5% CO2, and 95% relative humidity).

C[C@@H]1O[C@@H](O[C@H]2[C@H](O[C@H]3CO[C@@H](O[C@H]4CC[C@]5(C)[C@H]6CC[C@]78OC[C@@]9(CC[C@](C)(C=O)C[C@H]97)C(=O)C[C@@]8(C)[C@]6(C)CC[C@H]5C4(C)C)[C@H](O)[C@H]3O)O[C@H](CO)[C@@H](O)[C@@H]2O)[C@H](O)[C@H](O)[C@H]1O [Ardisimamilloside H]
Effect on rifampicin-induced PXR activity (PXR): dose dependently decreased
EC50 (P-gp [1]): 42 ± 3.5 µM
Estimated concentration per dose [2]: 0.011 mg/mL
Estimated GIT concentration [2]: 0.047 µg/mL
Estimated Plasma concentration [2]: 0.003 µg/mL
IC50 (P-gp [3]): 4.2 ± 1.1 µM

CC1(C)[C@@H](O[C@@H]2OC[C@H](O[C@@H]3O[C@H](CO)[C@@H](O)[C@H](O)[C@H]3O[C@@H]3OC[C@@H](O)[C@H](O)[C@H]3O)[C@H](O)[C@H]2O)CC[C@]2(C)[C@H]3CC[C@]45OC[C@@]6(CC[C@](C)(C=O)C[C@H]64)[C@H](O)C[C@@]5(C)[C@]3(C)CC[C@@H]12 [Primulanin]
Effect on rifampicin-induced PXR activity (PXR): dose dependently decreased
EC50 (P-gp [1]): 34 ± 2.3 µM
Estimated concentration per dose [2]: 0.07 mg/mL
Estimated GIT concentration [2]: 0.31 µg/mL
Estimated Plasma concentration [2]: 0.026 µg/mL
IC50 (P-gp [3]): 6.4 ± 2.3 µM

Lucifer yellow [LY]
Papp value [4]: 1.1 ± 0.8 × 10^-6 cm/s
